Data from patent US20250176602A1, “Composition for Proliferation of Bacteroides uniformis in the Intestinal Tract” (Asahi Group Holdings, Ltd., priority 2019, published 2025).

Assays:
[1] = Suppression of increase in heart rate during exercise, Aerobike exercise loading test (Example 4); type: in vivo, human; conditions: about 1000 mg/day
Experimental: (§1) As the test subjects, 86 healthy males at the ages of 20 to 49 who have exercise habits of conducting exercise with an intensity of 5 METs or more for 30 minutes or more once or twice a week and who can continue the exercise habits during the test period as well were selected.
(§2) Among the 86 test subjects, 43 test subjects were selected as an α-cyclodextrin (αCD) intake group, and the remaining 43 test subjects were selected as a placebo group. The test subjects themselves were not informed who belonged to which group.
(§3) Test Supplements (tablets) having compositions described in Table 4 below were used. One tablet of the test supplements was of about 600 mg.
(§4) Each test subject of the αCD intake group and the placebo group was asked to take in 4 tablets of the above test supplements once a day at any timing. That is, each test subject of the α-cyclodextrin intake group was asked to take in about 1000 mg of α-cyclodextrin per day.
(§5) The intake period for the test supplements was set to 8 weeks, and the heart rate during exercise was measured, before the start of the intake, after 4-week intake, and after 8-week intake to evaluate change in heart rate. In addition, a questionnaire on fatigue feeling was conducted before the start of the intake of the test supplements and after 8-week intake, and change in travel time was evaluated. […]

[2] = Fatigue feeling mitigation test, VAS general fatigue feeling (Example 5); type: in vivo, human; conditions: after 8-week intake, about 1000 mg/day; p<0.05
Experimental: as §1, §2, §3, §4, §5

OC[C@H]1O[C@@H]2O[C@H]3[C@H](O)[C@@H](O)[C@@H](O[C@H]4[C@H](O)[C@@H](O)[C@@H](O[C@H]5[C@H](O)[C@@H](O)[C@@H](O[C@H]6[C@H](O)[C@@H](O)[C@@H](O[C@H]7[C@H](O)[C@@H](O)[C@@H](O[C@H]1[C@H](O)[C@H]2O)O[C@@H]7CO)O[C@@H]6CO)O[C@@H]5CO)O[C@@H]4CO)O[C@@H]3CO [α-cyclodextrin]
average heart rate for 10 minutes immediately before the end of exercise (Δ value vs before intake), compared with placebo group ([1]; after 4-week intake, tendency): lower | average heart rate for 10 minutes immediately before the end of exercise (Δ value vs before intake), compared with placebo group ([1]; after 8-week intake, p<0.05): significantly lower | general fatigue feeling (VAS) immediately after exercise, change vs before intake, compared with placebo group [2]: significantly decreased
